From ChEMBL document CHEMBL1201862, “PubChem BioAssay data set” (2004)
The source made the active and inactive calls.

Columns and labels:
[1] = target: Ras and Rab interactor 1/Tyrosine-protein kinase ABL1 (Homo sapiens, UniProt P00519+Q13671); format: functional;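 further: biochemical TR-FRET dose-response test measuring inhibition of binding between Rin1 and Abl proteins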
[2] = target: T1, Sentrin-specific protease 8 (Homo sapiens, UniProt Q96LD8); experiment: inhibition of human SENP8 cleavage activity – biochemical, luminescence, SAR follow-up (AID 504501); format: functional
T1 sequence (Q96LD8 whole entry): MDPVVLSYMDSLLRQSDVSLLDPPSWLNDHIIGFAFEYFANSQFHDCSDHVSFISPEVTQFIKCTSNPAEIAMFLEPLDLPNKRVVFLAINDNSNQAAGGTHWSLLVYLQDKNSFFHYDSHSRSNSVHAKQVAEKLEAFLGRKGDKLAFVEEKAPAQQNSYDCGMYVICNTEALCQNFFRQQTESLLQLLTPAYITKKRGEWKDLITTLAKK

Caspase-3 = target: T2, Caspase-3 (Homo sapiens, UniProt P42574); experiment: SAR Analysis of small molecule inhibitors of Sentrin-specific proteases (SENPs) using a Caspase-3 Selectivity assay. [Related pubchem assays (depositor defined):AID2540, AID2599, AID434973, AID489001]; format: functional
T2 sequence (P42574 whole entry): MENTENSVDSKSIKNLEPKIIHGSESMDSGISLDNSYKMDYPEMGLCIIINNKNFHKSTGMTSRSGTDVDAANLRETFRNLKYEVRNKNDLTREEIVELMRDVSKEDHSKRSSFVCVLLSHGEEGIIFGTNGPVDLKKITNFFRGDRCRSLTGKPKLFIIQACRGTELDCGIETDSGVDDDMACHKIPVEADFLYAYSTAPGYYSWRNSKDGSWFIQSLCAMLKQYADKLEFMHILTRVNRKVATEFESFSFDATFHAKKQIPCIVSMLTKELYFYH

[3] = target: T3, Sentrin-specific protease 6 (Homo sapiens, UniProt Q9GZR1); experiment: SAR Analysis of small molecule inhibitors of Sentrin-specific protease 6 (SENP6) using a Luminescent assay. [Related pubchem assays (depositor defined):AID2582, AID2599]; format: functional
T3 sequence (Q9GZR1 whole entry): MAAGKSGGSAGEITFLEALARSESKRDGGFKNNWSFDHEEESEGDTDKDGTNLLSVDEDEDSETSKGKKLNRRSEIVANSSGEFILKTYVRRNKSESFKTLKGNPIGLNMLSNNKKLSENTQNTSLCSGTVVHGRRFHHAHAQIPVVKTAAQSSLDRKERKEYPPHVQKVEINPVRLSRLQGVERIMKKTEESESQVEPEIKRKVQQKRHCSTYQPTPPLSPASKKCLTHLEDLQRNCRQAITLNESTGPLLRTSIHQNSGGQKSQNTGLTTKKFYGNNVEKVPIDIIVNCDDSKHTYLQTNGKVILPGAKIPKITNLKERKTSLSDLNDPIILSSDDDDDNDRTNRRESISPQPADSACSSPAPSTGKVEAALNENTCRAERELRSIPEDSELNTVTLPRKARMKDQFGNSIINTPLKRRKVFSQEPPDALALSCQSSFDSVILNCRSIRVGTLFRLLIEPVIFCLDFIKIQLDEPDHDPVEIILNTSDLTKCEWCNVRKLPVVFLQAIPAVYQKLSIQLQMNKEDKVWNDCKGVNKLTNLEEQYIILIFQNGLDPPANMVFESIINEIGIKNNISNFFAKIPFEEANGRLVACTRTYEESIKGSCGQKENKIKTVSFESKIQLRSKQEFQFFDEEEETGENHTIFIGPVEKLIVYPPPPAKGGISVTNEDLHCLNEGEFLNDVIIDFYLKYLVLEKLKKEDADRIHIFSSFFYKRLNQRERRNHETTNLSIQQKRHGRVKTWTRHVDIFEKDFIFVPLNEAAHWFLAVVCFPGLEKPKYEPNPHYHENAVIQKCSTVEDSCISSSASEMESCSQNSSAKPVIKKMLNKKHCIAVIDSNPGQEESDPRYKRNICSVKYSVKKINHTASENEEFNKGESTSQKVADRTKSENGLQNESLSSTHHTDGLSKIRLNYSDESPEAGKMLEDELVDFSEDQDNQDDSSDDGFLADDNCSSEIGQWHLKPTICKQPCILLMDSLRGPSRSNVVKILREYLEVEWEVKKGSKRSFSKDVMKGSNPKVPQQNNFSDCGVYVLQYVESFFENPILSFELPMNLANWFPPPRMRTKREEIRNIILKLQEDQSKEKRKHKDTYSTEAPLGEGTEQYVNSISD

[4] = target: Luciferin 4-monooxygenase (Photinus pyralis, UniProt P08659); experiment: inhibition of purified Photinus pyralis luciferase – biochemical, luminescence, dose response (AID 1891)
[5] = Luminescence Cell-Based Dose Confirmation HTS to Identify Inhibitors of Platelet Dense Granule Release. [Related pubchem assays: 1663 (Primary HTS), 1678 (Summary of Project)]; format: functional
[6] = target: Beta-2 adrenergic receptor (Homo sapiens, UniProt P07550); experiment: ADRB2 activation measured by internalization – cell-based, FAP fluorogen, flow cytometry, cherry pick 1, dose response (AID 588763); format: functional
CAAX prenyl protease 2 [7] = target: T4, CAAX prenyl protease 2 (Saccharomyces cerevisiae S288c, UniProt Q03530); format: biochemical
T4 sequence (Q03530 whole entry): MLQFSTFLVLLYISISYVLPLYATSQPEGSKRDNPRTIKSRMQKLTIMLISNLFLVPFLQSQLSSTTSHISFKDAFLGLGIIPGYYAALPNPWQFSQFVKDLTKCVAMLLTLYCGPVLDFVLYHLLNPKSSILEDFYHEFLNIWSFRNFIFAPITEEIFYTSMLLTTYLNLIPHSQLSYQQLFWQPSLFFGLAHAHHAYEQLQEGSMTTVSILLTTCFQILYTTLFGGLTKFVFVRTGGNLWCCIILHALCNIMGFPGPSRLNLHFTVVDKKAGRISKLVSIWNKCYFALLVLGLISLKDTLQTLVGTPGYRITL

CAAX prenyl protease 2 [8] = target: T5, CAAX prenyl protease 2 (Homo sapiens, UniProt Q9Y256); experiment: inhibition of Ras-converting CAAX protease Rce1 – biochemical, yeast membranes, quenched-peptide fluorescence, cherry-pick, dose response (AID 588849)
T5 sequence (Q9Y256 whole entry): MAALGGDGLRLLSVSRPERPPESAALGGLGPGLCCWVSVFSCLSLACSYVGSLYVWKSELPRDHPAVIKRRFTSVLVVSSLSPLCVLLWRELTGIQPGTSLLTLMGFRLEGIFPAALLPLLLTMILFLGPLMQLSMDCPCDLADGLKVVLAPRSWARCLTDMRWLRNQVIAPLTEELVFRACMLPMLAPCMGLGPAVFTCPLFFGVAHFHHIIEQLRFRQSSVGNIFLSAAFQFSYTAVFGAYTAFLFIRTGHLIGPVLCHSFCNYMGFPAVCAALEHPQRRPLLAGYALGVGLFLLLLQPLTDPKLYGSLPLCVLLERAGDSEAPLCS

[9] = target: Dual specificity protein kinase CLK1 (Homo sapiens, UniProt P49759); experiment: inhibition of human CLK1 activity – biochemical, cherry-picked samples, selectivity assay for Dyrk1A inhibitor project, dose response (AID 588811)
HeLa = experiment: ATP-based viability loss in HeLa cells – cell-based, CellTiter-Glo luminescence, cherry-pick samples, cytotoxicity control for MITF activator project, dose response (AID 540259); format: functional; conditions: Homo sapiens
[10] = Trypanosoma cruzi growth suppression in host cells – NIH3T3 host cells, beta-gal luminescence, confirmation (AID 2044); format: functional, cell-based;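 further: intracellular parasites grown in NIH/3T3 mouse fibroblasts as host cells; luminescent beta-galactosidase reporter signal from transgenic T. cruzi replicating inside host cells; inhibitors lower the luminescence signal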
[11] = NIH3T3 cell viability loss – ATP luminescence, mouse fibroblasts, counter-screen, dose response (AID 2010); format: functional, cell-based;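 further: cells exposed to compound for about 90 hours before reading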
Vero [12] = experiment: viability of Vero cells under compound – cytotoxicity control for flavivirus capping enzyme inhibitors (AID 588742); format: functional; conditions: Chlorocebus sabaeus
[13] = target: Dual specificity tyrosine-phosphorylation-regulated kinase 1A (Rattus norvegicus, UniProt Q63470); format: biochemical, Homo sapiens
[14] = tested on: Streptococcus sp. 'group A'; experiment: Streptococcus pyogenes SK(-)GAS viability under kanamycin – luminescence, BacTiterGlo, confirmation, counter-screen for streptokinase expression inhibitor project, dose response (AID 1900); format: functional, organism-based; conditions: Streptococcus sp. 'group A'
Streptokinase A = target: T6, Streptokinase A (Streptococcus pyogenes serotype M1, UniProt P10520); experiment: viability-normalized secreted streptokinase activity reduction – plasminogen activation absorbance, OD405, dose response (AID 1914); format: functional, Streptococcus pyogenes M1 GAS;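 further: secreted streptokinase activity via plasminogen activation per viability signal from cell pellet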
T6 sequence (P10520 whole entry): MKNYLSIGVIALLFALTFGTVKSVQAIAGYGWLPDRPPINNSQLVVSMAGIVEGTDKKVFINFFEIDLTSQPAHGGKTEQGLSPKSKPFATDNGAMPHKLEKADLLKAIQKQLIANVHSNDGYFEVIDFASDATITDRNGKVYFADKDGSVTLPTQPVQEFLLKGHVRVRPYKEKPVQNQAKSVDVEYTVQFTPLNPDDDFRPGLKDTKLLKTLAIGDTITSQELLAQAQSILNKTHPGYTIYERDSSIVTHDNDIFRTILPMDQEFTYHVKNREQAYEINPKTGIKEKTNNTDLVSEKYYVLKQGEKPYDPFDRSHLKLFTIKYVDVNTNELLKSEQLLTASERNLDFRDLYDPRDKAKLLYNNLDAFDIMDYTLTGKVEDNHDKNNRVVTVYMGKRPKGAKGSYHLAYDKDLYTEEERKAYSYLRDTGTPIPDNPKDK

Streptococcus = experiment: GAS UMAA2166 growth inhibition – luminescence, BacTiterGlo, counter-screen for streptokinase expression inhibitor project, dose response (AID 1915); format: functional, organism-based; conditions: Streptococcus;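 further: potency for reduction of bacterial viability or growth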
BJ [15] = experiment: BJ-TERT fibroblast viability loss – cell-based, RAS-independent, luminescence, dose response (AID 1933); format: functional; conditions: Homo sapiens
BJ [16] = experiment: cells; format: functional, cell-based; conditions: Homo sapiens
BJ [17] = experiment: BJ-TERT-LT-ST fibroblast viability loss – cell-based, RAS-independent, luminescence, dose response (AID 1935); format: functional; conditions: Homo sapiens;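 further: BJ fibroblasts immortalized with TERT plus LT and ST oncogenes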
[18] = DRD fibroblast viability loss – cell-based, non-viral oncogenic, luminescence, dose response (AID 1934); format: functional; conditions: Homo sapiens
BJ [19] = experiment: growth inhibition of engineered Ras-driven BJ cells – cell-based, alamar blue fluorescence, cherrypicked samples, dose response (AID 2631); format: functional; conditions: Homo sapiens;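 further: confirmatory dose-response assay in RAS-dependent BJ fibroblasts engineered with TERT, LT and ST, with cytotoxicity read by fluorescence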
Vero [20] = experiment: cells; format: functional; conditions: Chlorocebus sabaeus

Dual specificity protein kinase CLK1, sequence (P49759 whole entry): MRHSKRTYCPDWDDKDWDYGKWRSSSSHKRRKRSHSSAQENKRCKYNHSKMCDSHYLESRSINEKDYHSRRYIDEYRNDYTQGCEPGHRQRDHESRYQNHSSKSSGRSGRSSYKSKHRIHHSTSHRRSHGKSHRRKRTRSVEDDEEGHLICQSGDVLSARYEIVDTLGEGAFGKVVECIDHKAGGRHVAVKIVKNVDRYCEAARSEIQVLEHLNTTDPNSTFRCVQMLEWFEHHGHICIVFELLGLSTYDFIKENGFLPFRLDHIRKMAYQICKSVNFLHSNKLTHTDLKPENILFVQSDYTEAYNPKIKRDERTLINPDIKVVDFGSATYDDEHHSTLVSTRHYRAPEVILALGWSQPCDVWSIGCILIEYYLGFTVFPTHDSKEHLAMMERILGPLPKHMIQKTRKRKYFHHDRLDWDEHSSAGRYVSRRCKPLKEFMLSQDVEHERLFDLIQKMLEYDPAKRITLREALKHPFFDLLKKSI
Beta-2 adrenergic receptor, sequence (P07550 whole entry): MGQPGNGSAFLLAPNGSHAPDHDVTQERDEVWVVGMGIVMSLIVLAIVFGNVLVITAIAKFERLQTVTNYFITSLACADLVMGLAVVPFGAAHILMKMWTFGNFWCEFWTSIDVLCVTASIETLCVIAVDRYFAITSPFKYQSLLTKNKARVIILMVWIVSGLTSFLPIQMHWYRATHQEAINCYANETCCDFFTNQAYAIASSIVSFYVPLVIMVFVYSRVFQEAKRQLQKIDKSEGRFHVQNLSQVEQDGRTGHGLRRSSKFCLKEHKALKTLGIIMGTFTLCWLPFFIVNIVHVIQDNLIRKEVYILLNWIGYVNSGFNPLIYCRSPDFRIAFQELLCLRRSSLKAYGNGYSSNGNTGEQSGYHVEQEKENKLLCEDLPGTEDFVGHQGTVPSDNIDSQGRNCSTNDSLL
Luciferin 4-monooxygenase, sequence (P08659 whole entry): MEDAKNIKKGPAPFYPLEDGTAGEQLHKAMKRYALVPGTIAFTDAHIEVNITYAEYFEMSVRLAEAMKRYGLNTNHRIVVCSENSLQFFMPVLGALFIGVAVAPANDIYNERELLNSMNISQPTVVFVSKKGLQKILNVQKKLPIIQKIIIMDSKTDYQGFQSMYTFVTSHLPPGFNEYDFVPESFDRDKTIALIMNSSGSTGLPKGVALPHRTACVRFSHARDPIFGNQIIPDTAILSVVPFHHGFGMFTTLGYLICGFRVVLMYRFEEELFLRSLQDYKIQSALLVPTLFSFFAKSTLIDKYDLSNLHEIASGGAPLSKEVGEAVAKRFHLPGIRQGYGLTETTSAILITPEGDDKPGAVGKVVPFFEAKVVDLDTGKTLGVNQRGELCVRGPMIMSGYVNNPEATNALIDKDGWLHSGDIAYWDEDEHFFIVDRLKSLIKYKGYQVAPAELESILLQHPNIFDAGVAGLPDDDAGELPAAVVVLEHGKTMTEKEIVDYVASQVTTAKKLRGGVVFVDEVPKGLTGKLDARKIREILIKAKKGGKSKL
Ras and Rab interactor 1/Tyrosine-protein kinase ABL1, sequence (P00519 whole entry): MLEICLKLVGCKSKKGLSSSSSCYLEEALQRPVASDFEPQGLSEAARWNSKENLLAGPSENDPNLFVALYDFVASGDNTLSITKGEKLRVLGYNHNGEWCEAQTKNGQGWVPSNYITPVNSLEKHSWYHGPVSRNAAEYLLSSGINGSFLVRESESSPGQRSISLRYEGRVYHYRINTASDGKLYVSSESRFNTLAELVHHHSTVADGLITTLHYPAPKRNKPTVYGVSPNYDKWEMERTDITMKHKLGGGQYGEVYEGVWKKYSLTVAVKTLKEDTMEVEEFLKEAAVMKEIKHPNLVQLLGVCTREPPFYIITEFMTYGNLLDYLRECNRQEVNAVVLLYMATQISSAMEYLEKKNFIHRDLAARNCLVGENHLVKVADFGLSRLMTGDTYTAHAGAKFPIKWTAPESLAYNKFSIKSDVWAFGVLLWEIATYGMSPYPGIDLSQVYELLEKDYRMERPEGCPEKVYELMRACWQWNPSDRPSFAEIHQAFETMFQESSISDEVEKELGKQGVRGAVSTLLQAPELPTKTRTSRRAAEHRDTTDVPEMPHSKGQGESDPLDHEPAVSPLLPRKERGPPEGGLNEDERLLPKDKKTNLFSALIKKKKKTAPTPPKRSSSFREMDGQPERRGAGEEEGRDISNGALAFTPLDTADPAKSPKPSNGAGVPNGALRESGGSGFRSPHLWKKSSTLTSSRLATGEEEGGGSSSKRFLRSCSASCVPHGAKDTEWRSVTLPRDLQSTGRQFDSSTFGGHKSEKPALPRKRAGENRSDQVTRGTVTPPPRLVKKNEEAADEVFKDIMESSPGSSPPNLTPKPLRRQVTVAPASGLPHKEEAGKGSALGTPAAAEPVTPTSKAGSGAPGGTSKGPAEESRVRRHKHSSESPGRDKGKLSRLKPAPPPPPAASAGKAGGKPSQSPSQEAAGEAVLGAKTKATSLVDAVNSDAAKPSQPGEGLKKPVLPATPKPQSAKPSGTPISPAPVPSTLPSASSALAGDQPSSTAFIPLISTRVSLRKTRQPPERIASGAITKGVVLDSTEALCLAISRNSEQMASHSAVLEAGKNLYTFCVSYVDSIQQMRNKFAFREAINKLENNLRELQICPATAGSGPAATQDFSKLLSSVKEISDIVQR
Ras and Rab interactor 1/Tyrosine-protein kinase ABL1, sequence (Q13671 whole entry): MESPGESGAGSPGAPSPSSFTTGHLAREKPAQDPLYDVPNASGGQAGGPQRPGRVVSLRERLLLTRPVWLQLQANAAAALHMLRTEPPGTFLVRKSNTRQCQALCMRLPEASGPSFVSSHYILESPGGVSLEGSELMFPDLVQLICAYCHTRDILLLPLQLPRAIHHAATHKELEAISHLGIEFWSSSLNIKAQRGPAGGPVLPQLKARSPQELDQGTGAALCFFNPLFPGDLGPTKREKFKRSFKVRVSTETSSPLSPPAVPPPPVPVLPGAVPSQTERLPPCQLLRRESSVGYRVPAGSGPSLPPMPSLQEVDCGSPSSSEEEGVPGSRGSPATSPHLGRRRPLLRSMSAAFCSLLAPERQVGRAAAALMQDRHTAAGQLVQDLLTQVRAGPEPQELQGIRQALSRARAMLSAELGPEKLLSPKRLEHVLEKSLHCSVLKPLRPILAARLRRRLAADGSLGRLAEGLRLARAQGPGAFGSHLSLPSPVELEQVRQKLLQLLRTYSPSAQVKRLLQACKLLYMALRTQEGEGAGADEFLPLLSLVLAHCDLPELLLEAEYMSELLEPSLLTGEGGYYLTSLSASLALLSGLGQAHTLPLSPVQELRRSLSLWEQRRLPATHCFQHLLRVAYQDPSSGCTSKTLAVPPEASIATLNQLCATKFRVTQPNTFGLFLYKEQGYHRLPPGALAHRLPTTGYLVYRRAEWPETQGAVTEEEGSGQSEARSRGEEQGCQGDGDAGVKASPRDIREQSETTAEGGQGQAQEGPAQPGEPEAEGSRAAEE

CC(=O)Nc1ccc(NC(=O)C2CCN(C(=O)c3cccs3)CC2)cc1
IC50 [1]: 1.9 µM (active)

COc1ccccc1OCc1ccc(C(=O)Nc2ccccc2F)cc1
IC50 [2]: > 99 µM (inactive)
IC50 (Caspase-3): 8.88 µM (active)
IC50 [3]: > 99 µM (inactive)

COc1cc(OC)nc(NC(=O)CSc2nnc(-c3ccccc3)n2C2CCCCC2)n1
EC50 [4]: > 112 µM (not active)
EC50 [5]: > 112 µM (not active)
EC50 [6]: 1.05 µM (active)

CCOC(=O)c1c(NC(=O)c2cccc(N3C(=O)CCC3=O)c2)sc(C)c1C
AC50 (CAAX prenyl protease 2 [7]): > 100 µM (inactive)
AC50 (CAAX prenyl protease 2 [8]): 31.5 µM (active)

CSc1ccc(/C=C/C(=O)OCC(=O)NC(C)C)cc1
AC50 (CAAX prenyl protease 2 [8]): 35.8 µM (active)

Cc1nc(CNc2ncnc3ccc(-c4ccoc4)cc23)cs1
AC50 [9]: 0.0311 µM (active)

N#Cc1ccc(NC(=O)c2cccs2)nc1
AC50 (HeLa): 248 µM (active)

C=CCn1c(SCc2ccccc2Cl)nnc1-c1sc2nc(C)cc(C)c2c1N
EC50 [10]: 0.161 µM (active)
EC50 [11]: > 60 µM (not active)
EC50 [6]: 0.0757 µM (active)

COc1cc(CNc2ccc(O)cc2)cc(Br)c1OCc1ccccc1F
CC50 (Vero [12]): > 40 µM (active)

CCN1CCN(Cc2ccc(NC(=O)c3ccc(C)c(NC(=O)N4CCNC4=O)c3)cc2C(F)(F)F)CC1
AC50 [9]: 2.29 µM (active)
AC50 [13]: 8.71 µM (active)

O=C(Nc1nc(-c2ccc3c(c2)OCCO3)cs1)c1ccco1
EC50 [14]: 20.1 µM (active)
EC50 (Streptokinase A): > 150 µM (not active)
EC50 (Streptococcus): > 150 µM (not active)
AC50 [9]: 3.98 µM (active)
AC50 [13]: 6.45 µM (active)

c1ccc2oc(-c3ccc4[nH]cnc4c3)nc2c1
AC50 (HeLa): 69.6 µM (active)

COc1ccc(N2C(=O)c3ccccc3NC23CCCCC3)cc1
AC50 (HeLa): 300 µM (active)

O=C(c1cccc(Cl)c1)N1CCC(C(=O)N2CCN(Cc3ccccc3)CC2)CC1
EC50 [6]: 5.89 µM (active)

COc1ccc(/C=N\NC(=O)c2cccc(F)c2)cc1COc1ccccc1
EC50 (BJ [15]): 0.575 µM (inconclusive)
EC50 (BJ [16]): 31.5 µM (active)
EC50 (BJ [17]): 5.12 µM (inconclusive)
EC50 [18]: 1.15 µM (active)
EC50 (BJ [19]): 0.286 µM (active)
CC50 (Vero [20]): 0.35 µM (active)
